In DBAASP:
Converted amounts (≈) assume the structure as drawn.

What was measured:
Experiment in all cases: ≥ marks a high value that may be exact or a test limit, other limits are often not marked, values filed in µg/mL are converted to µM
[1] = test system: Enterococcus faecalis ATCC 29212
[2] = test system: Staphylococcus aureus ATCC 29213
[3] = test system: Salmonella enterica subsp. enterica serovar Pullorum C79-13
[4] = test system: Staphylococcus epidermidis ATCC 12228
[5] = test system: Bacillus subtilis CMCC 63501
[6] = test system: Salmonella enterica subsp. enterica serovar Typhimurium C77-31
[7] = test system: Pseudomonas aeruginosa ATCC 27853
[8] = test system: Escherichia coli ATCC 25922
[9] = test system: Escherichia coli O111
[10] = test system: Streptococcus uberis
[11] = test system: Listeria innocua
[12] = test system: Leuconostoc lactis
[13] = test system: Staphylococcus aureus
[14] = test system: Pasteurella multocida
[15] = test system: Escherichia coli
[16] = test system: Micrococcus luteus
[17] = test system: Staphylococcus epidermidis
[18] = test system: Bacillus cereus
[19] = test system: Cronobacter sakazakii DPC 6440
[20] = test system: Listeria monocytogenes LO28

| MIC [10] | MIC [11] | MIC [12] | MIC [13] | MIC [14] | MIC [15] | MIC [16] | MIC [17] | MIC [18] | MIC [19] | MIC [20] | SMILES | other results |
| --- | --- | --- | --- | --- | --- | --- | --- | --- | --- | --- | --- | --- |
| – | – | – | – | – | – | – | – | – | ≥ 312 µM | ≥ 39.1 µM | CC[C@H](C)[C@H](NC(=O)[C@@H](N)Cc1c[nH]c2ccccc12)C(=O)N[C@@H](CCC(N)=O)C(=O)N1CCC[C@H]1C(=O)N[C@@H](CCCCN)C(=O)N[C@H](C(=O)N[C@@H](C)C(=O)N[C@H](C(=O)N[C@H](C(=O)N1CCC[C@H]1C(=O)N[C@@H](Cc1ccc(O)cc1)C(=O)N[C@H](C(=O)N[C@@H](CCCN=C(N)N)C(=O)N[C@@H](Cc1ccc(O)cc1)C(=O)N[C@@H](CC(C)C)C(=O)O)C(C)C)[C@@H](C)CC)C(C)C)[C@@H](C)O [WIQPKTAVIPYVRYL] | – |
| – | – | – | – | – | – | – | – | – | ≥ 78.1 µM | 19.5 µM (≈ 35.4 µg/mL) | CC[C@H](C)[C@H](NC(=O)[C@@H](N)Cc1c[nH]c2ccccc12)C(=O)N[C@@H](CCC(N)=O)C(=O)N1CCC[C@H]1C(=O)N[C@@H](CCCCN)C(=O)N[C@H](C(=O)N[C@@H](CCCCN)C(=O)N[C@H](C(=O)N[C@H](C(=O)N1CCC[C@H]1C(=O)N[C@@H](Cc1ccc(O)cc1)C(=O)N[C@H](C(=O)N[C@@H](CCCN=C(N)N)C(=O)N[C@@H](C)C(=O)N[C@@H](CC(C)C)C(=O)O)C(C)C)[C@@H](C)CC)C(C)C)[C@@H](C)O [WIQPKTKVIPYVRAL] | – |
| – | – | – | – | – | – | – | – | – | ≥ 625 µM | ≥ 156 µM | CC[C@H](C)[C@H](NC(=O)[C@@H](N)Cc1c[nH]c2ccccc12)C(=O)N[C@@H](CCC(N)=O)C(=O)N1CCC[C@H]1C(=O)N[C@@H](C)C(=O)N[C@H](C(=O)N[C@@H](C)C(=O)N[C@H](C(=O)N[C@H](C(=O)N1CCC[C@H]1C(=O)N[C@@H](Cc1ccc(O)cc1)C(=O)N[C@H](C(=O)N[C@@H](CCCN=C(N)N)C(=O)N[C@@H](Cc1ccc(O)cc1)C(=O)N[C@@H](CC(C)C)C(=O)O)C(C)C)[C@@H](C)CC)C(C)C)[C@@H](C)O [WIQPATAVIPYVRYL] | – |

More lines, now with the values behind:

| SMILES | MIC [10] | MIC [11] | MIC [12] | MIC [13] | MIC [14] | MIC [15] | MIC [16] | MIC [17] | MIC [18] | MIC [19] | MIC [20] | other results |
| --- | --- | --- | --- | --- | --- | --- | --- | --- | --- | --- | --- | --- |
| NC(=O)[C@H](Cc1ccccc1)NC(=O)[C@H](CCCN=C(N)N)NC(=O)[C@H](Cc1ccccc1)NC(=O)[C@H](CCCN=C(N)N)NC(=O)[C@H](CS)NC(=O)[C@H](Cc1ccccc1)NC(=O)[C@H](CCCN=C(N)N)NC(=O)[C@H](CCCN=C(N)N)NC(=O)[C@H](CCCN=C(N)N)NC(=O)[C@H](CS)NC(=O)[C@H](CCCN=C(N)N)NC(=O)[C@H](Cc1ccccc1)NC(=O)[C@H](CCCN=C(N)N)NC(=O)[C@@H](N)Cc1ccccc1 [FRFRCRRRFCRFRF] | – | – | – | – | – | – | – | – | – | – | – | MIC [1]: 4 µM (≈ 8.21 µg/mL); MIC [2]: 2 µM (≈ 4.11 µg/mL); MIC [3]: 1 µM (≈ 2.05 µg/mL); MIC [4]: 2 µM (≈ 4.11 µg/mL); MIC [5]: 2 µM (≈ 4.11 µg/mL); MIC [6]: 2 µM (≈ 4.11 µg/mL); MIC [7]: 4 µM (≈ 8.21 µg/mL); MIC [8]: 1 µM (≈ 2.05 µg/mL) |
| CC[C@H](C)[C@H](NC(=O)[C@H](CO)NC(=O)[C@@H]1CCCN1C(=O)[C@H](C)NC(=O)CNC(=O)[C@H](CC(C)C)NC(=O)[C@H](CCCN=C(N)N)NC(=O)[C@H](CCSC)NC(=O)[C@H](CCCN=C(N)N)NC(=O)[C@H](CCCN=C(N)N)NC(=O)[C@H](CCC(N)=O)NC(=O)[C@H](Cc1c[nH]c2ccccc12)NC(=O)[C@H](CCC(N)=O)NC(=O)[C@@H](N)Cc1ccc(O)cc1)C(=O)N[C@H](C(=O)O)[C@@H](C)O [YQWQRRMRLGAPSIT] | – | – | – | – | – | – | – | – | – | – | – | MIC [9]: ≥ 322 µM |
| CCC(C)[C@H](N=C(O)C(CO)N=C(O)[C@H](CO)N=C(O)[C@@H](N=C(O)C(CC(C)C)N=C(O)CN)C(C)C)C(O)=NCC(O)=N[C@@H](CCCNC(=N)N)C(O)=N[C@@H](C)C(O)=N[C@@H](CC(C)C)C(O)=NCC(O)=NCC(O)=N[C@@H](CC(C)C)C(O)=N[C@@H](CC(C)C)C(O)=N[C@@H](C)C(O)=NC(CC(=O)O)C(O)=NC(C(O)=N[C@@H](C(O)=N[C@H](CCCCN)C(O)=N[C@H](CO)C(O)=N[C@H](CCCCN)C(O)=NCC(O)=N[C@H](CCC(=N)O)C(=O)N1CCCC1C(O)=N[C@H](C)C(=O)O)C(C)C)C(C)C (some centres undefined) [GLVSSIGRALGGLLADVVKSKGQPA] | ≥ 41.8 µM | ≥ 41.8 µM | ≥ 41.8 µM | > 41.8 µM | 10.4 µM (≈ 25 µg/mL) | > 41.8 µM | ≥ 41.8 µM | ≥ 41.8 µM | ≥ 41.8 µM | – | – | – |
| CC[C@H](C)[C@H](NC(=O)[C@@H](NC(=O)[C@H](CCCCN)NC(=O)[C@@H](N)[C@@H](C)O)C(C)C)C(=O)N1CCC[C@H]1C(=O)N[C@@H](Cc1ccc(O)cc1)C(=O)N[C@H](C(=O)N[C@@H](CCCN=C(N)N)C(=O)N[C@@H](Cc1ccc(O)cc1)C(=O)N[C@@H](CC(C)C)C(=O)O)C(C)C [TKVIPYVRYL] | – | – | – | – | – | – | – | – | – | ≥ 156 µM | ≥ 78.1 µM | – |
| CC[C@H](C)[C@H](NC(=O)[C@H](CO)NC(=O)[C@@H]1CCCN1C(=O)[C@H](C)NC(=O)CNC(=O)[C@H](CC(C)C)NC(=O)[C@H](CCCCN)NC(=O)[C@H](CCCN=C(N)N)NC(=O)[C@H](CCSC)NC(=O)[C@H](CCCN=C(N)N)NC(=O)[C@H](CCCN=C(N)N)NC(=O)[C@H](CCC(N)=O)NC(=O)[C@@H](N)Cc1c[nH]c2ccccc12)C(=O)N[C@H](C(=O)O)[C@@H](C)O [WQRRMRKLGAPSIT] | – | – | – | – | – | – | – | – | – | – | – | MIC [9]: ≥ 58.8 µM |
| CC[C@H](C)[C@H](NC(=O)[C@H](C)NC(=O)[C@@H]1CCCN1C(=O)[C@H](CC(C)C)NC(=O)[C@@H](NC(=O)[C@H](Cc1cnc[nH]1)NC(=O)[C@H](CO)NC(=O)[C@@H](NC(=O)[C@@H](NC(=O)[C@H](CO)NC(=O)CNC(=O)[C@H](CC(C)C)NC(=O)[C@H](CC(C)C)NC(=O)CNC(=O)[C@H](CC(C)C)NC(=O)[C@H](CC(C)C)NC(=O)CN)C(C)C)C(C)C)C(C)C)C(=O)N[C@H](C(=O)N[C@@H](CCC(N)=O)C(=O)N[C@@H](Cc1cnc[nH]1)C(=O)N[C@@H](CC(C)C)C(N)=O)[C@@H](C)O [GLLGLLGSVVSHVLPAITQHL] | 23.5 µM (≈ 50 µg/mL) | ≥ 47.1 µM | 2.82 µM (≈ 6 µg/mL) | 23.5 µM (≈ 50 µg/mL) | ≥ 47.1 µM | > 47.1 µM | 23.5 µM (≈ 50 µg/mL) | 23.5 µM (≈ 50 µg/mL) | ≥ 47.1 µM | – | – | – |
| CC[C@H](C)[C@H](NC(=O)[C@@H](NC(=O)CN)C(C)C)C(=O)N[C@@H](CC(=O)O)C(=O)N[C@@H](C)C(=O)N[C@@H](C)C(=O)N[C@@H](C)C(=O)N[C@@H](CCCCN)C(=O)N[C@H](C(=O)N[C@H](C(=O)N[C@@H](CC(N)=O)C(=O)N[C@H](C(=O)N[C@@H](CC(C)C)C(=O)N[C@@H](CCCCN)C(=O)N[C@@H](CC(N)=O)C(=O)N[C@@H](CC(C)C)C(=O)N[C@@H](Cc1ccccc1)C(N)=O)C(C)C)C(C)C)C(C)C [GVIDAAAKVVNVLKNLF] | 28.2 µM (≈ 50 µg/mL) | ≥ 56.5 µM | 6.78 µM (≈ 12 µg/mL) | > 56.5 µM | ≥ 56.5 µM | > 56.5 µM | ≥ 56.5 µM | ≥ 56.5 µM | ≥ 56.5 µM | – | – | – |
| CC[C@H](C)[C@H](NC(=O)[C@@H](NC(=O)[C@H](CO)NC(=O)[C@H](C)NC(=O)[C@@H](NC(=O)[C@H](CCCCN)NC(=O)[C@H](CCCCN)NC(=O)[C@@H](NC(=O)[C@@H](NC(=O)[C@H](CC(=O)O)NC(=O)[C@H](Cc1ccccc1)NC(=O)[C@H](CC(C)C)NC(=O)CN)C(C)C)[C@@H](C)CC)C(C)C)C(C)C)C(=O)N[C@@H](CCCCN)C(=O)N[C@@H](CCCCN)C(=O)N[C@@H](CC(C)C)C(N)=O [GLFDVIKKVASVIKKL] | 28.4 µM (≈ 50 µg/mL) | 28.4 µM (≈ 50 µg/mL) | 1.71 µM (≈ 3 µg/mL) | 56.9 µM (≈ 99.9 µg/mL) | ≥ 56.9 µM | > 56.9 µM | 28.4 µM (≈ 50 µg/mL) | 6.83 µM (≈ 12 µg/mL) | 14.2 µM (≈ 25 µg/mL) | – | – | – |
